Experiments:
VPS35 [1] = biological target: T1, VPS35 (Homo sapiens, UniProt Q96QK1); assay: Western blot of VPS35 protein levels in HECT293T cells after VPS35 plasmid transfection and/or R55; type: cell-based; conditions: 5 μM of R55, Western blot 72 hours after transfection, lanes 7 and 8
T1 construct: expressed in transfected cells; host or cells: HECT293T cells
Procedure: Human HECT293 cells, considered a model for human neurons, were cultured. VPS35 was delivered via plasmid to HECT293T cells under control of the constitutive EF1a promoter. Pharmacological chaperone R55 was administered to the cells as an aqueous solution at concentrations of 5 uM and 50 uM at the time of transfection. Protein levels were assessed by Western blot 72 hours after transfection.
Lipofectamine transfection protocols were used with some modifications. Briefly lipofectamine LTX was used to co-transfect Vps35 and Vps26 (Vps26a or Vps26b) plasmids into the cells in a 6 well format. 100k cells were plated in each well already containing medium with DNA-lipofectamine complexes. Empty chassis and GFP as were used as control plasmids. Amount of DNA copies introduced per well was 2.81 E+11. Cells were harvested 48 hours after transfection using RIPA buffer as described previously (Qureshi et al. 2019).
Cells were lysed in RIPA and protein were isolated as described previously (Qureshi et al. 2019; Kirby et al. 2015). Lysates from the samples were run on NuPAGE® Bis-Tris 4-12% gels, transferred onto nitrocellulose membranes using iblot and were probed with antibodies.
A primary antibody targeting VPS35 was used (ab57632, Abcam, 1:1k). Western blots were scanned using the Odyssey imaging system as described previously (Eaton et al. 2013). […]

[2] = biological target: purified, reconstituted heterotrimeric complex (Homo sapiens, UniProt Q96QK1+Q9UBQ0); conditions: various concentrations; Mecozzi et al. 2014; cited from earlier work
VPS35 [3] = biological target: T2, VPS35 (Mus musculus, UniProt Q9EQH3); conditions: cultured primary neurons; Mecozzi et al. 2014; cited from earlier work
T2 construct: cultured primary neurons; endogenous in cells; host or cells: cultured primary neurons

VPS26 = conditions: cultured primary neurons; Mecozzi et al. 2014; cited from earlier work

increase on endogenous VPS35 protein levels (VPS35 [1]): about 50%
SMILES: [H]/N=C(\N)SCc1ccc(CS/C(N)=N/[H])s1 [R55]
thermal stability (denaturation temperature of the complex) [2]: improved thermal stability significantly | VPS35 protein levels (VPS35 [3]): increased | VPS26 protein levels (VPS26): increased

— US20230104357A1, “Combination of Retromer Pharmacological Chaperones and Exogenous Retromer for the Treatment of Alzheimer's Disease and Other Neurodegenerative Diseases and Disorders” (The Trustees of Columbia University in the City of New York, priority 2020, published 2023)
